Target: epidermal growth factor receptor (EGFR) (Homo sapiens, UniProt P00533)
Assay: SPRi with photo-crosslinked immobilized proguanil capturing proteins from T24 cell lysate, identified by LC-MS; no Kd
Format: cell-based

Sequence of epidermal growth factor receptor (EGFR) (P00533 25-1210): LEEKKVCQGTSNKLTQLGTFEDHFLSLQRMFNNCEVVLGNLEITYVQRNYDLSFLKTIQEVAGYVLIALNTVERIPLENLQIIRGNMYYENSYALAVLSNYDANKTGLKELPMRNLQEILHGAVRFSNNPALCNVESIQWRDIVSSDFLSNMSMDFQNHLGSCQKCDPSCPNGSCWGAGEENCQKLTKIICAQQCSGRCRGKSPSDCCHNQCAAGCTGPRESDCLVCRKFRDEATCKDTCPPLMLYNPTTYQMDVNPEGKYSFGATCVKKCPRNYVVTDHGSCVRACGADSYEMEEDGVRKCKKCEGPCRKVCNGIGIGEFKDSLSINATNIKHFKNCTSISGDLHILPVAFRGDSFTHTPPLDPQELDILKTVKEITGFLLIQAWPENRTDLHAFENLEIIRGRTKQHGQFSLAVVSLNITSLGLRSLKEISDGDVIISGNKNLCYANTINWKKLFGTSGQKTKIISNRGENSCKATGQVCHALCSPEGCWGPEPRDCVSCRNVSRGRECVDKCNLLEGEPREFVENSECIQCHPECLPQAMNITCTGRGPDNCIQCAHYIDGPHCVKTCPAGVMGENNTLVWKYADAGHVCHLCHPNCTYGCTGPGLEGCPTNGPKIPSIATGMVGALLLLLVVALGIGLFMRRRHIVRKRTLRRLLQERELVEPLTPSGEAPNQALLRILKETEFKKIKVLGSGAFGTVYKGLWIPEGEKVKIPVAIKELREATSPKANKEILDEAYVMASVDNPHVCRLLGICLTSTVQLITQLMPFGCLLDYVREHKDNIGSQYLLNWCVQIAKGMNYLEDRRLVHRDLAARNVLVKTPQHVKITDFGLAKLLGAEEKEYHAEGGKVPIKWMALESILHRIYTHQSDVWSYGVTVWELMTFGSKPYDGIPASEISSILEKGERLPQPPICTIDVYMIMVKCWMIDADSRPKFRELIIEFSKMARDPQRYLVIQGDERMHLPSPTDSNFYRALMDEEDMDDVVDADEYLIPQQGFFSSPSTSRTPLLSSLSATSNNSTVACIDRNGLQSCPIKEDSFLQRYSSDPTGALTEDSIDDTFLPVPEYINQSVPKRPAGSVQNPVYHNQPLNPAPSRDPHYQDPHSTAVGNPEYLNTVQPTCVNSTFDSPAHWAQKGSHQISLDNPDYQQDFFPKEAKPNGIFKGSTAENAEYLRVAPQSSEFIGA

[H]/N=C(\N/C(=N/[H])Nc1ccc(Cl)cc1)NC(C)C [proguanil]
SPRi with photo-crosslinked immobilized proguanil capturing proteins from T24 ce: surface plasmon resonance imaging (SPRi) experiments and found that proguanil strongly binds to EGFR (Fig. 1A)
